Data on 10 compounds can be found in patent US20260234139A1, “PGDH INHIBITORS AND METHODS OF MAKING AND USING” (Epirium Bio Inc., priority 2023, published 2026).

Bounds are passed on as bounds.

Assay [1] addresses T1, 15-PGDH/HPGD (Homo sapiens, UniProt P15428).
T1 construct: purchased R&D System 5660-DH
T1 sequence (P15428 1-266): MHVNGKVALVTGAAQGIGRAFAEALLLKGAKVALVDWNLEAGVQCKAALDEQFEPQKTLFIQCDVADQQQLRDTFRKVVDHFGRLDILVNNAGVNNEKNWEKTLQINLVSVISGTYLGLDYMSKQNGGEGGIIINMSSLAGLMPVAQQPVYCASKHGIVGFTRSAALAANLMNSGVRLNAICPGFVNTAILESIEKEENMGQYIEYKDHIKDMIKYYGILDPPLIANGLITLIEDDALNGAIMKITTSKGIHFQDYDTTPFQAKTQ
As to the kind of experiment: hPGDH inhibitor screening biochemical assay. The settings on record: 10 nM enzyme, 15 μM Prostaglandin E2, 0.25 mM NAD, fluorescence ex/em 340/485 nm. In short, it runs like this: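 Recombinant 15-PGDH (10 nM) preincubated with compound 10 min at 37° C, then 15 μM PGE2 and 0.25 mM NAD⁺ added for 10 min at room temperature in 50 mM Tris-HCl pH 7.5, 0.01% Tween 20. NADH fluorescence at ex/em 340/485 nm; 10-point dose response.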

Assay [2] deals with A549. As to the kind of experiment: A549 EC50 (cell assay, method not described). It counts as cell-based.

With `O=C(O)c1ccc(-n2ncc3cc([C@@H](O)COCC4CC4)ccc32)cc1` [Compound 114A], the IC50 in assay [1] is 100 to 1000 nM. Moreover, the EC50 in assay [2] (Homo sapiens, A549, A549) was ≥ 1000 nM.
The compound `CC(C)OC[C@H](O)c1cnc2c(cnn2-c2ccc(OCC(=O)O)cc2)c1` [Compound 78A] gave an IC50 in assay [1] of 100 to 1000 nM. For the same compound, in assay [2] (Homo sapiens, A549, A549), the EC50 was ≥ 1000 nM.
`CCOC(C)(C)C(O)c1cnc2c(cnn2-c2cccc(-c3nnc[nH]3)c2)c1` (single isomer, unassigned) [Compound 34A]: in assay [1], the IC50 was < 100 nM. The concentration for a half-maximal effect (EC50) in assay [2] (A549) is < 100 nM.
As to `O[C@H](c1cnc2c(cnn2-c2cccc(-c3nnc[nH]3)c2)c1)C1COC1` [Compound 28B], in assay [1], the IC50 is < 100 nM. This compound also displayed a half-maximal effective concentration (EC50) in assay [2] (Homo sapiens, A549, A549) of 100 to 1000 nM.
For the compound `CC(C)(O)CC[C@@H](O)c1cnc2c(cnn2-c2cccc(-c3nnc[nH]3)c2)c1` [Compound 56B], the concentration for half-maximal inhibition (IC50) in assay [1] was < 100 nM. Moreover, the EC50 in assay [2] (Homo sapiens, A549, A549) fell in the range of 100 to 1000 nM.
For `CCOC(C)(C)[C@H](O)c1cnc2c(cnn2-c2ccc(C(=O)O)cc2)c1` [Compound 53A] the same measures were 100 to 1000 nM and 100 to 1000 nM.
For `O[C@H](c1cnc2c(cnn2-c2cccc(-c3nnc[nH]3)c2)c1)C1C2CCCCC21` (some centres unmarked) [Compound 51A] the same measures were < 100 nM and 100 to 1000 nM.
Turning to `O[C@@H](COC1CC1)c1cnc2c(ccn2-c2cccc(-c3nnc[nH]3)c2)n1` [Compound 38B], in assay [1], the IC50 was < 100 nM. The compound further registered an EC50 in assay [2] (Homo sapiens, A549, A549) of 100 to 1000 nM.
Taken in the same sequence, the figures for `COC(C)(C)CC[C@@H](O)c1cnc2c(cnn2-c2cccc(-c3nnc[nH]3)c2)c1` [Compound 55B] were < 100 nM and < 100 nM.
Take `O=C(O)c1ccc(-n2ncc3cc([C@H](O)COC4CCC4)cnc32)cn1` [Compound 96A]: in assay [1], the IC50 is < 100 nM. Besides, in assay [2] (Homo sapiens, A549, A549), the half-maximal effective concentration (EC50) is ≥ 1000 nM.

For orientation: IC50 means the concentration at which inhibition is half-maximal. High values mean weaker potency, low ones greater potency. The EC50 is the concentration giving half of the maximal effect. A lower EC50 goes with an effect from little substance.
